For one data set, the target named is UBE2S. The data set is described as follows: reporter assay of Huesken 2005. The note with it: siRNA. (In general: In a reporter assay the amount or activity of a reporter protein is the signal.)
A further data set addresses UBE2B. Briefly: reporter assay of Huesken 2005. The note with it: siRNA.

This is an account of results in the OligoGym collection.

Oligonucleotides are written 5' to 3', each unit as a sugar letter and its base; * is a phosphorothioate linkage, no mark a phosphodiester; rarer units and linkages stand in square brackets, end groups in braces. Plain capitals give the bases only. d = 2'-deoxy (DNA); r = 2'-OH (RNA)
Also: test concentration or dose not given here.

Turning to “sense rGrGrArGrArArCrUrArCrGrArGrGrArGrUrArUdTdT / antisense rArUrArCrUrCrCrUrCrGrUrArGrUrUrCrUrCrCdAdA”, the normalised inhibition (eCFP-eYFP dual reporter) with UBE2S was 56.3%.

With “sense rArCrUrGrArCrCrGrCrArGrArCrCrCrArCrCrCdTdT / antisense rGrGrGrUrGrGrGrUrCrUrGrCrGrGrUrCrArGrUdGdT”, in the data set with UBE2S, the normalised inhibition (eCFP-eYFP dual reporter) amounted to 43.6%.

“sense rGrCrUrGrGrGrGrArArGrGrArCrUrUrCrCrCrUdTdT / antisense rArGrGrGrArArGrUrCrCrUrUrCrCrCrCrArGrCdAdG” gave a normalised inhibition (eCFP-eYFP dual reporter) with UBE2S of 53.9%.

As for “sense rGrCrCrArGrUrGrGrCrArCrUrGrArArGrCrUrUdTdT / antisense rArArGrCrUrUrCrArGrUrGrCrCrArCrUrGrGrCdCdA”, in the data set with UBE2S, the normalised inhibition (eCFP-eYFP dual reporter) was found to be 57.9%.

The substance “sense rCrUrGrGrGrGrArArGrGrArCrUrUrCrCrCrUrGdTdT / antisense rCrArGrGrGrArArGrUrCrCrUrUrCrCrCrCrArGdCdA” registered a normalised inhibition (eCFP-eYFP dual reporter) with UBE2S of 40.4%.

Consider “sense rCrUrCrGrGrGrCrCrCrGrUrCrUrGrCrUrCrArCdTdT / antisense rGrUrGrArGrCrArGrArCrGrGrGrCrCrCrGrArGdCdT”, for which the normalised inhibition (eCFP-eYFP dual reporter) with UBE2S was determined as 55%.

Consider “sense rArGrGrGrGrArCrCrCrCrArUrArUrGrCrUrGrGdTdT / antisense rCrCrArGrCrArUrArUrGrGrGrGrUrCrCrCrCrUdCdA”, for which the normalised inhibition (eCFP-eYFP dual reporter) with UBE2S was found to be 36.5%.

As for “sense rGrCrArCrUrGrArArGrCrUrUrCrCrUrCrCrArCdTdT / antisense rGrUrGrGrArGrGrArArGrCrUrUrCrArGrUrGrCdCdA”, the normalised inhibition (eCFP-eYFP dual reporter) in the data set with UBE2S was determined as 58.5%.

The substance “sense rArUrCrUrUrCrCrArCrCrCrGrArArCrGrUrGrGdTdT / antisense rCrCrArCrGrUrUrCrGrGrGrUrGrGrArArGrArUdCdT” returned a normalised inhibition (eCFP-eYFP dual reporter) in the data set with UBE2S of 31.6%.

In turn, “sense rCrUrCrCrArCrCrGrArCrCrCrUrGrGrGrGrCrCdTdT / antisense rGrGrCrCrCrCrArGrGrGrUrCrGrGrUrGrGrArGdGdA” came in with a normalised inhibition (eCFP-eYFP dual reporter) with UBE2S of 44%.

“sense rCrCrCrArArCrGrArGrGrArGrGrArCrCrUrCrAdTdT / antisense rUrGrArGrGrUrCrCrUrCrCrUrCrGrUrUrGrGrGdAdA” showed a normalised inhibition (eCFP-eYFP dual reporter) with UBE2S of 54%.

With “sense rCrCrCrUrGrArGrGrGrGrArCrCrCrCrArUrArUdTdT / antisense rArUrArUrGrGrGrGrUrCrCrCrCrUrCrArGrGrGdCdC”, the normalised inhibition (eCFP-eYFP dual reporter) with UBE2S is 46.5%.

On to “sense rUrArArCrCrCrCrGrArGrUrCrUrGrCrArCrUrCdTdT / antisense rGrArGrUrGrCrArGrArCrUrCrGrGrGrGrUrUrAdGdG”, for which, in the data set with UBE2S, the normalised inhibition (eCFP-eYFP dual reporter) is 39.5%.

In the case of “sense rArCrArCrGrUrArCrUrGrCrUrGrArCrCrArUrCdTdT / antisense rGrArUrGrGrUrCrArGrCrArGrUrArCrGrUrGrUdCdG”, in the data set with UBE2S, the normalised inhibition (eCFP-eYFP dual reporter) is 59.3%.

As to “sense rArArGrGrUrCrUrUrUrCrCrCrArArCrGrArGrGdTdT / antisense rCrCrUrCrGrUrUrGrGrGrArArArGrArCrCrUrUdGdA”, in the data set with UBE2S, the normalised inhibition (eCFP-eYFP dual reporter) was determined as 53%.

“sense rCrArCrCrCrArArGrGrGrCrUrArCrUrUrCrCrUdTdT / antisense rArGrGrArArGrUrArGrCrCrCrUrUrGrGrGrUrGdGdG”: the normalised inhibition (eCFP-eYFP dual reporter) with UBE2S was 81.5%.

In the data set with UBE2S, “sense rUrGrCrUrCrUrUrGrGrArGrArArCrUrArCrGrAdTdT / antisense rUrCrGrUrArGrUrUrCrUrCrCrArArGrArGrCrAdGdG” gave a normalised inhibition (eCFP-eYFP dual reporter) of 77.8%.

With “sense rArCrCrCrGrArUrGrGrCrArUrCrArArGrGrUrCdTdT / antisense rGrArCrCrUrUrGrArUrGrCrCrArUrCrGrGrGrUdGdG”, in the data set with UBE2S, the normalised inhibition (eCFP-eYFP dual reporter) was determined as 66.4%.

“sense rGrArGrUrCrUrGrCrArCrUrCrArArCrGrArGrGdTdT / antisense rCrCrUrCrGrUrUrGrArGrUrGrCrArGrArCrUrCdGdG”: the normalised inhibition (eCFP-eYFP dual reporter) in the data set with UBE2S turned out to be 71.5%.

“sense rCrCrUrGrArGrGrGrGrArCrCrCrCrArUrArUrGdTdT / antisense rCrArUrArUrGrGrGrGrUrCrCrCrCrUrCrArGrGdGdC”: in the data set with UBE2S, the normalised inhibition (eCFP-eYFP dual reporter) was 25.2%.

Substance “sense rGrArCrCrCrArCrCrCrGrArUrGrGrCrArUrCrAdTdT / antisense rUrGrArUrGrCrCrArUrCrGrGrGrUrGrGrGrUrCdTdG” yielded a normalised inhibition (eCFP-eYFP dual reporter) with UBE2S of 61.7%.

The substance “sense rGrGrUrGrArCrGrArCrArCrUrGrArCrCrGrCrAdTdT / antisense rUrGrCrGrGrUrCrArGrUrGrUrCrGrUrCrArCrCdTdC” showed a normalised inhibition (eCFP-eYFP dual reporter) in the data set with UBE2S of 88.7%.

In the data set with UBE2S, “sense rUrGrGrArGrGrUrCrUrGrUrUrCrCrGrCrArUrGdTdT / antisense rCrArUrGrCrGrGrArArCrArGrArCrCrUrCrCrAdGdC” yielded a normalised inhibition (eCFP-eYFP dual reporter) of 58.5%.

Consider “sense rArCrGrGrCrUrGrArGrCrUrGrGrGrCrArUrCrCdTdT / antisense rGrGrArUrGrCrCrCrArGrCrUrCrArGrCrCrGrUdCdC”, for which, in the data set with UBE2S, the normalised inhibition (eCFP-eYFP dual reporter) was determined as 52.3%.

In the case of “sense rCrGrCrArGrArCrCrCrArCrCrCrGrArUrGrGrCdTdT / antisense rGrCrCrArUrCrGrGrGrUrGrGrGrUrCrUrGrCrGdGdT”, the normalised inhibition (eCFP-eYFP dual reporter) with UBE2S was 51.5%.

For “sense rGrGrCrCrArArGrArArGrCrArUrGrCrUrGrGrCdTdT / antisense rGrCrCrArGrCrArUrGrCrUrUrCrUrUrGrGrCrCdAdT”, in the data set with UBE2S, the normalised inhibition (eCFP-eYFP dual reporter) worked out at 57.2%.

In turn, “sense rGrCrUrGrGrArUrGrArArCrCrGrArArUrCrCrUdTdT / antisense rArGrGrArUrUrCrGrGrUrUrCrArUrCrCrArGrCdAdG” returned a normalised inhibition (eCFP-eYFP dual reporter) in the data set with UBE2B of 81.5%.

Turning to “sense rArArArCrUrArGrUrArArUrArGrArArUrUrUrUdTdT / antisense rArArArArUrUrCrUrArUrUrArCrUrArGrUrUrUdAdA”, in the data set with UBE2B, the normalised inhibition (eCFP-eYFP dual reporter) worked out at 47.5%.

In turn, “sense rCrGrArGrArArUrArUrGrArGrArArArArGrArGdTdT / antisense rCrUrCrUrUrUrUrCrUrCrArUrArUrUrCrUrCrGdTdT” came in with a normalised inhibition (eCFP-eYFP dual reporter) with UBE2B of 73.5%.

As for “sense rArCrArArGrArGrGrArCrCrCrArCrCrUrGrUrGdTdT / antisense rCrArCrArGrGrUrGrGrGrUrCrCrUrCrUrUrGrUdAdA”, the normalised inhibition (eCFP-eYFP dual reporter) with UBE2B turned out to be 61.1%.

As to “sense rArGrArArArArGrArGrUrUrUrCrGrGrCrCrArUdTdT / antisense rArUrGrGrCrCrGrArArArCrUrCrUrUrUrUrCrUdCdA”, in the data set with UBE2B, the normalised inhibition (eCFP-eYFP dual reporter) is 77.8%.

In the data set with UBE2B, “sense rUrUrUrUrCrUrGrArArGrArArUrArUrCrCrArAdTdT / antisense rUrUrGrGrArUrArUrUrCrUrUrCrArGrArArArAdTdT” registered a normalised inhibition (eCFP-eYFP dual reporter) of 85.3%.

In the data set with UBE2B, “sense rCrArUrArUrGrArUrGrUrArUrCrUrUrCrUrArUdTdT / antisense rArUrArGrArArGrArUrArCrArUrCrArUrArUrGdTdT” yielded a normalised inhibition (eCFP-eYFP dual reporter) of 83.9%.

On to “sense rArArCrArArCrArUrCrArUrGrCrArGrUrGrGrAdTdT / antisense rUrCrCrArCrUrGrCrArUrGrArUrGrUrUrGrUrUdTdT”, for which the normalised inhibition (eCFP-eYFP dual reporter) with UBE2B came to 56.4%.

“sense rGrUrGrGrArArUrGrCrArGrUrUrArUrArUrUrUdTdT / antisense rArArArUrArUrArArCrUrGrCrArUrUrCrCrArCdTdG” had a normalised inhibition (eCFP-eYFP dual reporter) with UBE2B of 84.6%.

In the data set with UBE2B, “sense rArUrCrCrUrUrCrArGrArArUrCrGrArUrGrGrAdTdT / antisense rUrCrCrArUrCrGrArUrUrCrUrGrArArGrGrArUdAdT” came in with a normalised inhibition (eCFP-eYFP dual reporter) of 77.2%.

In the data set with UBE2B, “sense rArGrUrCrCrArGrCrCrArArUrArGrCrCrArGrGdTdT / antisense rCrCrUrGrGrCrUrArUrUrGrGrCrUrGrGrArCrUdGdT” returned a normalised inhibition (eCFP-eYFP dual reporter) of 68.7%.

The substance “sense rCrArGrUrGrGrArArUrGrCrArGrUrUrArUrArUdTdT / antisense rArUrArUrArArCrUrGrCrArUrUrCrCrArCrUrGdCdA” registered a normalised inhibition (eCFP-eYFP dual reporter) with UBE2B of 83.5%.

Take “sense rGrCrGrCrArCrCrArUrCrUrGrArArArArCrArAdTdT / antisense rUrUrGrUrUrUrUrCrArGrArUrGrGrUrGrCrGrCdCdA”: the normalised inhibition (eCFP-eYFP dual reporter) with UBE2B was found to be 72.8%.

“sense rUrCrArGrUrCrUrCrUrGrCrUrGrGrArUrGrArAdTdT / antisense rUrUrCrArUrCrCrArGrCrArGrArGrArCrUrGrAdAdT” showed a normalised inhibition (eCFP-eYFP dual reporter) with UBE2B of 62.4%.

Turning to “sense rArUrArUrGrArGrArArArArGrArGrUrUrUrCrGdTdT / antisense rCrGrArArArCrUrCrUrUrUrUrCrUrCrArUrArUdTdC”, in the data set with UBE2B, the normalised inhibition (eCFP-eYFP dual reporter) was 46.3%.

In the data set with UBE2B, “sense rGrArArUrArUrGrArGrArArArArGrArGrUrUrUdTdT / antisense rArArArCrUrCrUrUrUrUrCrUrCrArUrArUrUrCdTdC” yielded a normalised inhibition (eCFP-eYFP dual reporter) of 78.7%.

Substance “sense rArGrUrCrUrCrUrGrCrUrGrGrArUrGrArArCrCdTdT / antisense rGrGrUrUrCrArUrCrCrArGrCrArGrArGrArCrUdGdA” had a normalised inhibition (eCFP-eYFP dual reporter) with UBE2B of 53.1%.

Substance “sense rArUrCrCrArArArUrGrUrGrUrArUrGrCrUrGrAdTdT / antisense rUrCrArGrCrArUrArCrArCrArUrUrUrGrGrArUdGdA” came in with a normalised inhibition (eCFP-eYFP dual reporter) with UBE2B of 73%.

In the case of “sense rCrCrArArArArUrGrUrUrUrCrArUrCrCrArArAdTdT / antisense rUrUrUrGrGrArUrGrArArArCrArUrUrUrUrGrGdAdT”, the normalised inhibition (eCFP-eYFP dual reporter) with UBE2B was 84.6%.

Turning to “sense rUrUrCrArUrCrCrArArArUrGrUrGrUrArUrGrCdTdT / antisense rGrCrArUrArCrArCrArUrUrUrGrGrArUrGrArAdAdC”, in the data set with UBE2B, the normalised inhibition (eCFP-eYFP dual reporter) came to 46%.

In the data set with UBE2B, “sense rCrGrGrGrArUrUrUrCrArArGrCrGrGrUrUrArCdTdT / antisense rGrUrArArCrCrGrCrUrUrGrArArArUrCrCrCrGdCdA” yielded a normalised inhibition (eCFP-eYFP dual reporter) of 85.1%.

Consider “sense rUrGrCrArGrUrUrArUrArUrUrUrGrGrArCrCrAdTdT / antisense rUrGrGrUrCrCrArArArUrArUrArArCrUrGrCrAdTdT”, for which the normalised inhibition (eCFP-eYFP dual reporter) with UBE2B amounted to 81.7%.

Take “sense rGrUrArUrGrCrUrGrArUrGrGrUrArGrCrArUrAdTdT / antisense rUrArUrGrCrUrArCrCrArUrCrArGrCrArUrArCdAdC”: in the data set with UBE2B, the normalised inhibition (eCFP-eYFP dual reporter) came to 75.7%.
